According to publication PMC10518255, “A first-in-class pan-lysyl oxidase inhibitor impairs stromal remodeling and enhances gemcitabine response and survival in pancreatic cancer” (Nature Cancer, 2023):

Experiments:
DAO = target: T1, DAO (Homo sapiens, UniProt P19801); assay: Substrate turnover by H2O2 release, amplex red coupled fluorometric activity assay (Extended Data Fig. 3a); format: biochemical
T1 sequence (P19801 20-751): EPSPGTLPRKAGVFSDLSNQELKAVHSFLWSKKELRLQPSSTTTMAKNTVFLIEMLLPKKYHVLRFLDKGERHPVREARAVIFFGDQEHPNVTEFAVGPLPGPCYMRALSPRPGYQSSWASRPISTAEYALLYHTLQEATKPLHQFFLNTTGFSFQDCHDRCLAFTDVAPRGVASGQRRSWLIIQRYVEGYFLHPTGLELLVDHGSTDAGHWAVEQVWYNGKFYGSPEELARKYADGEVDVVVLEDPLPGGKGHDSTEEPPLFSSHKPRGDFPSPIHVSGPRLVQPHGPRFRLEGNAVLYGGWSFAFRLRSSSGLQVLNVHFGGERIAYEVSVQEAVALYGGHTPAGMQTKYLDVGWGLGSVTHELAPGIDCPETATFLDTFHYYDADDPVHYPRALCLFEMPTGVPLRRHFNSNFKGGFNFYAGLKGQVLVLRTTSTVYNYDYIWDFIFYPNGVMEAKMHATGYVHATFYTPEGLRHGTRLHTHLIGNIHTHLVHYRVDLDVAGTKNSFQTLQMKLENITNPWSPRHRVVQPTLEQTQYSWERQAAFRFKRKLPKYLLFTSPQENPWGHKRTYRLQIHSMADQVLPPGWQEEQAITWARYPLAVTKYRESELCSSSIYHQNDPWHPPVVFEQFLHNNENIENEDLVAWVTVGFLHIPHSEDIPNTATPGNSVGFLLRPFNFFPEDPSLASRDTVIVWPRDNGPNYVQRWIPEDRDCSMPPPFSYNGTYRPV
Description: (§1) Specifically, BAPN is oxidized by diamine oxidase (DAO) and semicarbazide-sensitive amine oxidase (SSAO)/vascular adhesion protein 1 (VAP-1) in the vasculature (Extended Data Fig. 3a), which releases hydrogen […] (H2O2) and aldehyde in humans leading to toxicity.
(§2) Data presented as mean values +/− SD. f. […] Data presented as mean values +/− SD. […] Data presented as mean values +/− SD. […] Data presented as mean values +/− SD. Ordinary one-way ANOVA for multiple comparison test performed. Source data

SSAO = target: T2, SSAO (Homo sapiens, UniProt Q16853); assay: as above; format: biochemical
T2 sequence (Q16853 1-763): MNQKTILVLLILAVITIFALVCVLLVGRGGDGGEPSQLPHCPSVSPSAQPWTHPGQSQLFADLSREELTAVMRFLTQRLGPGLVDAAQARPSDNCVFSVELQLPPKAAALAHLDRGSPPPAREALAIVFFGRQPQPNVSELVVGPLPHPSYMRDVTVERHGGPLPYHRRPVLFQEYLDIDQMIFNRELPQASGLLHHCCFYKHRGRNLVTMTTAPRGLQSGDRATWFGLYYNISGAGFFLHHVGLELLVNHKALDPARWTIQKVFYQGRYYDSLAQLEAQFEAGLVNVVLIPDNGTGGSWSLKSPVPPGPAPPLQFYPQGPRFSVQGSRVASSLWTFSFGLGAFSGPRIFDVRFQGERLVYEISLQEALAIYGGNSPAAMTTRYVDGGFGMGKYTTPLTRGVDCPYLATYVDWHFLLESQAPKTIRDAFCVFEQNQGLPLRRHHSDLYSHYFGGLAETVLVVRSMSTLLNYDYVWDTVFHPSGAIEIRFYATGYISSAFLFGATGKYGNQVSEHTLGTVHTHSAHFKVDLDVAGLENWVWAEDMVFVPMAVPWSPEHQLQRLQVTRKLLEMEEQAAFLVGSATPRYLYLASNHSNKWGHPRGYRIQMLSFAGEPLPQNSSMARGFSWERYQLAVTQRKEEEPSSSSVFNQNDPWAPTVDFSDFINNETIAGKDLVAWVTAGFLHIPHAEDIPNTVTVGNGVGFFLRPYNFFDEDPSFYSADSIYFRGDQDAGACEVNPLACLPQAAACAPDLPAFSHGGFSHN
Description: as §1, §2

[1] = system: KPC CAF remodeled 3D collagen matrices; assay: Matrix stiffness by unconfined compression testing of organotypic matrices; format: cell-based, mouse; conditions: PXS-5120 100 nM, day 12
Description: Fig. 3 PXS-5505 inhibition of CAF remodeling in vitro. a, Quantitative PCR with reverse transcription (qRT–PCR) showing in vitro comparison of KPC CAF relative expression of lysyl oxidase family members compared to KPC CCs from the same model (n = 3 biologically independent samples). Comparisons were determined by 2^–∆∆Ct approach. b, Representative images of 3D organotypic matrix contraction assay at days 2, 6 and 12 in the absence (gray) or presence (pink) of PXS-5505 (30 µM). Scale bars, 5 mm. Comparison of measured area of matrices between control and PXS-5505 treatment groups over time (n = 3 technical samples examined over three biologically independent samples). Data are mean ± s.d. c, Concentration of immature divalent DHLNL and mature trivalent Pyr collagen crosslinks determined by LC–MS from control and PXS-5505-treated organotypic matrices at day 12 (n = 3 technical samples examined over two biologically independent samples). Data are mean ± s.d. […] Data are presented as mean ± s.d. […] Comparison of number of CCs invaded per field of view (FOV) as determined by H&E and PanCK staining (nine images taken from three technical samples from each of three biologically independent contracted matrices), normalized to control. Data are mean ± s.d. Scale bars, 100 μm. […] Source data […]

KPC CCs = assay: Cancer cell invasion into CAF-remodeled 3D organotypic matrices; format: cell-based, mouse; conditions: PXS-5120 100 nM
Description: Fig. 3 PXS-5505 inhibition of CAF remodeling in vitro. a, Quantitative PCR with reverse transcription (qRT–PCR) showing in vitro comparison of KPC CAF relative expression of lysyl oxidase family members compared to KPC CCs from the same model (n = 3 biologically independent samples). Comparisons were determined by 2^–∆∆Ct approach. b, Representative images of 3D organotypic matrix contraction assay at days 2, 6 and 12 in the absence (gray) or presence (pink) of PXS-5505 (30 µM). Scale bars, 5 mm. Comparison of measured area of matrices between control and PXS-5505 treatment groups over time (n = 3 technical samples examined over three biologically independent samples). Data are mean ± s.d. c, Concentration of immature divalent DHLNL and mature trivalent Pyr collagen crosslinks determined by LC–MS from control and PXS-5505-treated organotypic matrices at day 12 (n = 3 technical samples examined over two biologically independent samples). Data are mean ± s.d. […] Data are presented as mean ± s.d. […] Comparison of number of CCs invaded per field of view (FOV) as determined by H&E and PanCK staining (nine images taken from three technical samples from each of three biologically independent contracted matrices), normalized to control. Data are mean ± s.d. Scale bars, 100 μm. […] Source data
Following remodeling, 4 × 10^4 KPC CCs were seeded on top of the remodeled matrix in DMEM supplemented with 10% FBS and 1% penicillin–streptomycin and allowed to grow to confluence for 4 days, after which matrices were transferred to an air–liquid interface and CCs allowed to invade into the organotypic matrices for 12 days (Extended Data Fig. 4f). PXS-5505 (30 μM) or PXS-5120 (100 nM) was added to medium at 48-h intervals for the duration. At the end point, matrices were fixed in 10% formalin and processed for histological analysis by H&E and panCK staining. The invasive index was measured in three representative areas per matrix and the number of invaded cells per mm^2 was calculated. No statistical methods were used to predetermine sample sizes but our sample sizes are similar to those reported in previous publications[36],[39].
Extended Data Fig. 4 PXS-5505 inhibits collagen cross-linking by PDAC CAFs in vitro resulting in decreased cancer cell invasion. a. Schematic of organotypic matrix remodeling assay whereby CAFs are embedded into a 3D collagen matrix and growth media supplemented with or without PXS-5505 to inhibit lysyl oxidase family activity b. Chemical structures of lysyl oxidase family catalyzed hydroxyallysine or allysine residues and the subsequent divalent and trivalent bonds that are formed that can be quantified by mass spectrometry. c. Representative images of 3D organotypic matrix contraction by human pancreatic cancer CAFs at days 2, 6 and 12 in the absence (gray) and presence (pink) of PXS-5505 (30 µM). Scale bars = 5 mm. […] Data presented as mean values +/− SD. d. […] Data presented as mean values +/− SD. Relative fold expression of LOXL family members compared to LOX were determined by 2^–∆∆Ct approach. f. […] Comparison of measured area of matrices between control, PXS-5120 and PXS-5505 treatment groups (n = 3) over time. i. […] Representative images of invasion of KPC cancer cells into a contracted organotypic matrix as determined by H&E staining. […]

[2] = listed as value 30 (unit not given)
[3] = listed as value 60 (unit not given)
[4] = listed as value 300 (unit not given)

N#CCCN [BAPN, β-aminopropionitrile, reference compound]
processing as a substrate by DAO (DAO): oxidized
Turnover by DAO as measured by H2O2 release, mean (DAO; [2]): 3.75
Turnover by DAO as measured by H2O2 release, mean (DAO; [3]): 4.64
Turnover by DAO as measured by H2O2 release, mean (DAO; [4]): 5.888
processing as a substrate by SSAO/VAP-1 (SSAO): oxidized
Turnover by SSAO as measured by H2O2 release, mean (SSAO; [2]): 1.3236
Turnover by SSAO as measured by H2O2 release, mean (SSAO; [3]): 1.5791
Turnover by SSAO as measured by H2O2 release, mean (SSAO; [4]): 2.4689

Cc1c(-c2cccc(S(=O)(=O)N(C)C)c2)c2cc(C(=O)O)ccc2n1C/C(F)=C/CN [PXS-5120, reference compound]
stiffening of 3D collagen matrices [1]: does not significantly block stiffening
CC invasion (KPC CCs): does not lead to decreased CC invasion
